Here are results for 11 molecules from ChEMBL document CHEMBL1201862, “PubChem BioAssay data set” (2004).

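Grown in 96-well plates, cells were treated for 48 hours with each compound at five concentrations. Insufficient inhibition: endpoint recorded as highest concentration tested. GI50 marks 50% less growth.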 Active and inactive are the calls of the source. Cut-off read from the data, not from the text of the source: active = GI50 up to about 1.1 µM and inactive = higher. Where only a bound is given, the exact number is not on record here.

Common to all, as to test: growth of human tumour cells (NCI), 48 h
The subject of test [1] is SK-OV-3.
For test [2], the system named is SF-268.
Test [3] deals with EKVX.
For test [4], the system named is OVCAR-8.
Test [5] relates to Malme-3M.
The test system of test [6] is CAKI-1.
Test [7] concerns HT-29.
Test [8] deals with HOP-62.
Test [9] has as its system SK-MEL-28.
In test [10] the test system is NCI-H23.
Test [11] relates to SNB-19.
Test [12] has as its system UACC-257.
Test [13] relates to COLO 205.
Test [14] concerns OVCAR-4.
In test [15] the test system is RXF 393.
The test system of test [16] is SN12C.
Test [17] has as its system SNB-75.
Test [18] has as its system M14.
Test [19] has as its system MCF7.
Test [20] concerns MDA-MB-231.

In the case of `Clc1ccc(-c2c(C3=NCCN3)nnn2-c2ccc(Cl)cc2)cc1`, the GI50 in test [1] is 29.6 µM (inactive); in test [2] it was 32.2 µM (inactive); in [3], 59.8 µM (inactive); in [4], 58.3 µM (inactive); in test [5], 19.1 µM (inactive); in test [6], 33.5 µM (inactive). Besides, the GI50 in test [7] is 13.9 µM (inactive); in test [8], 53.1 µM (inactive); in test [9], 25.1 µM (inactive); in [10], 35.2 µM (inactive); in test [11] it was 29.4 µM (inactive); in test [12] it was 18.2 µM (inactive). For the same molecule, the GI50 in test [13] is 12.6 µM (inactive); in test [14], 47.4 µM (inactive); in test [15], 16.7 µM (inactive); in test [16], 71.4 µM (inactive); in [17] it was 17.8 µM (inactive); in [18], 17.1 µM (inactive).
Turning to `O=S(=O)(O)c1ccc2cc(/N=N/c3c(O)ccc4ccccc34)ccc2c1`, the GI50 in test [1] was > 100 µM (inactive); in test [19], > 100 µM (inactive); in test [2], > 100 µM (inactive); in [3] it was > 100 µM (inactive); in [4], > 100 µM (inactive); in test [5], 82.6 µM (inactive). The GI50 in [6], in test [7], in test [8], in test [10], in test [11] and in test [12] was > 100 µM (inactive) in each case. In addition, the GI50 in test [13], in test [14], in [15], in [16], in [17] and in test [18] was > 100 µM (inactive) in each case.
As for `CCN(CC)C(=O)c1cccc2c(OC)ccc(OC)c12`, the GI50 in test [1], in [2], in [3], in test [4], in test [5] and in test [6] was > 100 µM (inactive) each time. In addition, the GI50 in test [7], in [8], in test [9], in test [10], in test [11] and in test [12] was > 100 µM (inactive) each time. The GI50 in [13], in [14], in [15], in [16], in [17] and in test [18] was > 100 µM (inactive) each time.
For `C=CCOC1OC(CO[Si](C)(C)C(C)(C)C)C(OCc2ccccc2)C(OCc2ccccc2)C1OCc1ccccc1` (stereo unspecified), the GI50 in [1] was > 100 µM (inactive); in test [19] it was 54.3 µM (inactive); in [2], 40.5 µM (inactive); in [3], > 100 µM (inactive); in test [4] it was 37.5 µM (inactive); in test [5] it was 27.5 µM (inactive). The GI50 was 54.5 µM (inactive) in test [6]; 79.1 µM (inactive) in test [7]; 21.7 µM (inactive) in test [8]; > 100 µM (inactive) in test [9]; > 100 µM (inactive) in test [10]; 26.2 µM (inactive) in test [11]. The GI50 in test [12] is 46.8 µM (inactive); in test [13], > 100 µM (inactive); in test [14], 39 µM (inactive); in test [16], 71.8 µM (inactive); in test [17], 21.5 µM (inactive); in [18] it was 68.1 µM (inactive).
With `N#CCCN(c1ccc(/C=N/c2ccccc2Cl)cc1)S(=O)(=O)c1ccccc1`, the GI50 in test [1], in [2], in [3], in test [4], in test [5] and in [6] was > 100 µM (inactive) in each case. The GI50 in [7], in test [8], in test [9], in [10], in test [11] and in test [12] was > 100 µM (inactive) throughout. Also, the GI50 in test [13], in [14], in test [15], in test [16], in test [17] and in [18] was > 100 µM (inactive) in each case.
Consider `CC1(C)C(=NNC(=S)NN)C(C)(C)C1=NNC(=S)NN`, for which the GI50 in [1], in test [2], in test [3], in test [4], in test [5] and in test [6] was > 100 µM (inactive) each time. For the same molecule, the GI50 in test [7], in test [8], in [9], in test [10], in [11] and in test [12] was > 100 µM (inactive) throughout. In addition, the GI50 in test [13] was > 100 µM (inactive); in test [14] it was > 100 µM (inactive); in [15], > 100 µM (inactive); in [16], > 100 µM (inactive); in [17], 98.4 µM (inactive); in [18] it was > 100 µM (inactive).
Turning to `O=[As](O)(O)c1ccc(/N=N/c2ccc([As](=O)(O)O)cc2)cc1`, the GI50 in [2], in [3], in test [4], in test [5], in test [6] and in [7] was > 100 µM (inactive) in each case. The GI50 in test [8], in test [9], in test [20], in [10], in test [11] and in test [12] was > 100 µM (inactive) each time. Also, the GI50 in test [14], in test [15], in [16] and in [18] was > 100 µM (inactive) each time.
Take `COc1ccccc1NC(=S)NNC(=O)c1cc(-c2ccccc2)nc2ccccc12`: the GI50 is 16.9 µM (inactive) in test [1]; 17.5 µM (inactive) in test [2]; 18 µM (inactive) in test [4]; 4.69 µM (inactive) in [5]; 10.7 µM (inactive) in test [6]; 21.9 µM (inactive) in test [7]. The GI50 is 11.7 µM (inactive) in test [8]; 10.4 µM (inactive) in [9]; 10 µM (inactive) in [20]; 13.9 µM (inactive) in test [10]; 24.5 µM (inactive) in [11]; 18.2 µM (inactive) in test [12]. The GI50 in test [13] was 11.8 µM (inactive); in test [14] it was 14.7 µM (inactive); in test [15], 3.27 µM (inactive); in test [16], 14.7 µM (inactive); in [17], 18.7 µM (inactive); in test [18], 11.9 µM (inactive).
On to `COc1cccc(-c2cc(O)c3cc4c(cc3n2)OCO4)c1`, for which the GI50 was 0.0374 µM (active) in test [1]; 0.731 µM (active) in [2]; 2.59 µM (inactive) in test [3]; 0.22 µM (active) in test [4]; 0.0488 µM (active) in test [5]; 0.0339 µM (active) in test [6]. For the same molecule, the GI50 in test [7] is 0.144 µM (active); in [8] it was 0.116 µM (active); in [9], > 53.1 µM (inactive); in test [10] it was 0.287 µM (active); in test [11] it was 0.109 µM (active); in test [12] it was 0.0452 µM (active). The GI50 in [13] was 0.132 µM (active); in test [14] it was 0.938 µM (active); in [15], 0.0452 µM (active); in test [16] it was 0.294 µM (active); in test [17] it was 0.0424 µM (active); in test [18], 0.0463 µM (active).
Regarding `CC#CC(OCC)(OCC)OCC`, the GI50 in test [1], in test [2], in test [3], in [4], in test [5] and in [6] was > 100 µM (inactive) throughout. Moreover, the GI50 in [7], in test [8], in [9], in [10], in [11] and in test [12] was > 100 µM (inactive) in each case. Further, the GI50 in test [13] was 57.1 µM (inactive); in [14], > 100 µM (inactive); in test [15], > 100 µM (inactive); in test [16], > 100 µM (inactive); in [17] it was > 100 µM (inactive); in [18] it was > 100 µM (inactive).
With `Nc1nc2sc3ccccc3c(=O)n2n1`, the GI50 in [1] is > 100 µM (inactive); in test [2] it was > 100 µM (inactive); in [3], 64.7 µM (inactive); in [4] it was > 100 µM (inactive); in [5], > 100 µM (inactive); in test [6], > 100 µM (inactive). In addition, the GI50 in test [7], in test [8], in [9], in test [10], in test [11] and in [12] was > 100 µM (inactive) in each case. For the same molecule, the GI50 in test [13], in test [14], in test [15], in test [16], in test [17] and in test [18] was > 100 µM (inactive) in each case.
